Values joined by “and” are separate entries in the source; they are usually repeats but may differ in a detail not shown here. Equal values may be shown once.
What was measured:
Assay type in all cases: in vivo
Giant Foxtail [1] = test: post-emergence herbicide test; details: Setaria faberi, post-emergence, 0.25 lb/A; read-out: % plant inhibition
In short: (§1)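 Greenhouse pot test: seeds pressed into compacted topsoil in pans, covered, watered as needed; at two to three weeks plants were sprayed by atomizer at 170.3 kPa, 1870 L/Ha, with about 0.4% v/v emulsifier. Value is percent inhibition per species.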

Common Chickweed [2] = test: post-emergence herbicide test; details: post-emergence, 0.25 lb/A; read-out: % plant inhibition
In short: as §1

Bedstraw Catchweed [3] = test: post-emergence herbicide test; details: Galium aparine, post-emergence, 0.25 lb/A; read-out: % plant inhibition
In short: as §1

Wild Oats [4] = test: post-emergence herbicide test; details: Avena fatua, post-emergence, 0.25 lb/A; read-out: % plant inhibition
In short: as §1

Morning Glory [5] = test: post-emergence herbicide test; details: Ipomoea, post-emergence, 0.25 lb/A; read-out: % plant inhibition
In short: as §1

Rape [6] = test: post-emergence herbicide test; details: post-emergence, 0.25 lb/A; read-out: % plant inhibition
In short: as §1

Downy Brome [7] = test: post-emergence herbicide test; details: Bromus tectorum, post-emergence, 0.25 lb/A; read-out: % plant inhibition
In short: as §1

Seedling Johnsongrass [8] = test: post-emergence herbicide test; details: Sorghum halepense, post-emergence, 0.25 lb/A; read-out: % plant inhibition
In short: as §1

Corn [9] = test: post-emergence herbicide test; details: Zea mays, post-emergence, 0.25 lb/A; read-out: % plant inhibition
In short: as §1

Barnyardgrass [10] = test: post-emergence herbicide test; details: Echinochloa crus-galli, post-emergence, 0.25 lb/A; read-out: % plant inhibition
In short: as §1

Birdseye Speedwell [11] = test: post-emergence herbicide test; details: post-emergence, 0.25 lb/A; read-out: % plant inhibition
In short: as §1

Blackgrass [12] = test: post-emergence herbicide test; details: Alopecurus myosuroides, post-emergence, 0.25 lb/A; read-out: % plant inhibition
In short: as §1

Green Foxtail [13] = test: post-emergence herbicide test; details: Setaria viridis, post-emergence, 0.25 lb/A; read-out: % plant inhibition
In short: as §1

Cocklebur [14] = test: post-emergence herbicide test; details: Xanthium strumarium, post-emergence, 0.25 lb/A; read-out: % plant inhibition
In short: as §1

Velvetleaf [15] = test: post-emergence herbicide test; details: Abutilon theophrasti, post-emergence, 0.25 lb/A; read-out: % plant inhibition
In short: as §1

Wheat [16] = test: post-emergence herbicide test; details: Triticum aestivum, post-emergence, 0.25 lb/A; read-out: % plant inhibition
In short: as §1

Soybean [17] = test: post-emergence herbicide test; details: Glycine max, post-emergence, 0.25 lb/A; read-out: % plant inhibition
In short: as §1

Giant Foxtail [18] = test: pre-emergence herbicide test; details: Setaria faberi, pre-emergence, 0.25 lb/A; read-out: % plant inhibition
In short: (§2)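 Herbicidal effect was assessed as percent inhibition about 14 days after sowing. A known amount of compound was added to the covering topsoil, and the pans were subirrigated in a greenhouse.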

Common Chickweed [19] = test: pre-emergence herbicide test; details: pre-emergence, 0.25 lb/A; read-out: % plant inhibition
In short: as §2

Bedstraw Catchweed [20] = test: pre-emergence herbicide test; details: Galium aparine, pre-emergence, 0.25 lb/A; read-out: % plant inhibition
In short: as §2

Wild Oats [21] = test: pre-emergence herbicide test; details: Avena fatua, pre-emergence, 0.25 lb/A; read-out: % plant inhibition
In short: as §2

Morning Glory [22] = test: pre-emergence herbicide test; details: 0.25 lb/A; for inhibition at 280.212 g/ha: Ipomoea, pre-emergence, read-out: % plant inhibition
In short: as §2

Rape [23] = test: pre-emergence herbicide test; details: pre-emergence, 0.25 lb/A; read-out: % plant inhibition
In short: as §2

Downy Brome [24] = test: pre-emergence herbicide test; details: Bromus tectorum, pre-emergence, 0.25 lb/A; read-out: % plant inhibition
In short: as §2

Seedling Johnsongrass [25] = test: pre-emergence herbicide test; details: Sorghum halepense, pre-emergence, 0.25 lb/A; read-out: % plant inhibition
In short: as §2

Corn [26] = test: pre-emergence herbicide test; details: 0.25 lb/A; for inhibition at 280.212 g/ha: Zea mays, pre-emergence, read-out: % plant inhibition
In short: as §2

Barnyardgrass [27] = test: pre-emergence herbicide test; details: 0.25 lb/A; for inhibition at 280.212 g/ha: Echinochloa crus-galli, pre-emergence, read-out: % plant inhibition
In short: as §2

Birdseye Speedwell [28] = test: pre-emergence herbicide test; details: pre-emergence, 0.25 lb/A; read-out: % plant inhibition
In short: as §2

Blackgrass [29] = test: pre-emergence herbicide test; details: Alopecurus myosuroides, pre-emergence, 0.25 lb/A; read-out: % plant inhibition
In short: as §2

Green Foxtail [30] = test: pre-emergence herbicide test; details: Setaria viridis, pre-emergence; 0.25 lb/A; read-out: % plant inhibition
In short: as §2

Cocklebur [31] = test: pre-emergence herbicide test; details: 0.25 lb/A; for inhibition at 280.212 g/ha: Xanthium strumarium, pre-emergence, read-out: % plant inhibition
In short: as §2

Velvetleaf [32] = test: pre-emergence herbicide test; details: 0.25 lb/A; for inhibition at 280.212 g/ha: Abutilon theophrasti, pre-emergence, read-out: % plant inhibition
In short: as §2

Wheat [33] = test: pre-emergence herbicide test; details: Triticum aestivum, pre-emergence, 0.25 lb/A; read-out: % plant inhibition
In short: as §2

Soybean [34] = test: pre-emergence herbicide test; details: Glycine max, pre-emergence, 0.25 lb/A; read-out: % plant inhibition
In short: as §2

SMILES | inhibition at 280.212 g/ha (Giant Foxtail [1]) | inhibition at 280.212 g/ha (Common Chickweed [2]) | inhibition at 280.212 g/ha (Bedstraw Catchweed [3]) | inhibition at 280.212 g/ha (Wild Oats [4]) | inhibition at 280.212 g/ha (Morning Glory [5]) | inhibition at 280.212 g/ha (Rape [6]) | inhibition at 280.212 g/ha (Downy Brome [7]) | inhibition at 280.212 g/ha (Seedling Johnsongrass [8]) | inhibition at 280.212 g/ha (Corn [9]) | inhibition at 280.212 g/ha (Barnyardgrass [10]) | inhibition at 280.212 g/ha (Birdseye Speedwell [11]) | inhibition at 280.212 g/ha (Blackgrass [12]) | inhibition at 280.212 g/ha (Green Foxtail [13]) | inhibition at 280.212 g/ha (Cocklebur [14]) | inhibition at 280.212 g/ha (Velvetleaf [15]) | inhibition at 280.212 g/ha (Wheat [16]) | inhibition at 280.212 g/ha (Soybean [17]) | inhibition at 280.212 g/ha (Giant Foxtail [18]) | inhibition at 280.212 g/ha (Common Chickweed [19]) | inhibition at 280.212 g/ha (Bedstraw Catchweed [20]) | other results
CCCCCCCCCCCCOC(=O)c1cc(-c2nn(C)c(C(F)(F)F)c2C)c(F)cc1Cl [Compound 49] | 0% | 10% | 35% | 20% | 5% | 20% | 20% | 5% | 5% | 0% | 80% | 20% | 60% | 50% | 10% | 10% | 5% | 10% | 5% | 5% | inhibition at 280.212 g/ha (Wild Oats [21]): 5%; inhibition at 280.212 g/ha (Morning Glory [22]): 40%; inhibition at 280.212 g/ha (Rape [23]): 0%; inhibition at 280.212 g/ha (Downy Brome [24]): 5%; inhibition at 280.212 g/ha (Seedling Johnsongrass [25]): 45%; inhibition at 280.212 g/ha (Corn [26]): 0%; inhibition at 280.212 g/ha (Barnyardgrass [27]): 75%; inhibition at 280.212 g/ha (Birdseye Speedwell [28]): 55%; inhibition at 280.212 g/ha (Blackgrass [29]): 5%; inhibition at 280.212 g/ha (Green Foxtail [30]): 60%; inhibition at 280.212 g/ha (Cocklebur [31]): 0%; inhibition at 280.212 g/ha (Velvetleaf [32]): 0%; inhibition at 280.212 g/ha (Wheat [33]): 0%; inhibition at 280.212 g/ha (Soybean [34]): 0%
Cc1c(-c2cc(C(=O)OCC(C)C)c(Cl)cc2F)nn(C)c1C(F)(F)F [Compound 45] | 80% | 100% | 100% | 80% | 50% | 50% | 95% | 95% | 55% | 75% | 100% | 98% | 100% | 100% | 100% | 17% | 35% | 100% | 80% | 98% | inhibition at 280.212 g/ha (Wild Oats [21]): 50%; inhibition at 280.212 g/ha (Morning Glory [22]): 30%; inhibition at 280.212 g/ha (Rape [23]): 5%; inhibition at 280.212 g/ha (Downy Brome [24]): 98%; inhibition at 280.212 g/ha (Seedling Johnsongrass [25]): 98%; inhibition at 280.212 g/ha (Corn [26]): 0%; inhibition at 280.212 g/ha (Barnyardgrass [27]): 75%; inhibition at 280.212 g/ha (Birdseye Speedwell [28]): 100%; inhibition at 280.212 g/ha (Blackgrass [29]): 100%; inhibition at 280.212 g/ha (Green Foxtail [30]): 100%; inhibition at 280.212 g/ha (Cocklebur [31]): 50%; inhibition at 280.212 g/ha (Velvetleaf [32]): 98%; inhibition at 280.212 g/ha (Wheat [33]): 0%; inhibition at 280.212 g/ha (Soybean [34]): 0%
CC(C)OC(=O)c1cc(-c2nn(C)c(C(F)(F)F)c2C(F)F)c(F)cc1Cl [Compound 13, 2-Chloro-5-[4-(difluoromethyl)-1-methyl-5-(trifluoromethyl)-1H-pyrazol-3-yl]-4-fluorobenzoic acid, 1-methylethyl ester] | 95% | 98% | 100% | 90% | 98% | 100% | 90% | 100% | 55% | 90% | 100% | 95% | 100% | 95% | 100% | 20% | 90% | 100% | 90% | 100% | inhibition at 280.212 g/ha (Wild Oats [21]): 95%; % plant inhibition (Morning Glory [22]): 50% and 93%; inhibition at 280.212 g/ha (Rape [23]): 65%; inhibition at 280.212 g/ha (Downy Brome [24]): 100%; inhibition at 280.212 g/ha (Seedling Johnsongrass [25]): 100%; % plant inhibition (Corn [26]): 65%; inhibition at 280.212 g/ha (Corn [26]): 80%; % plant inhibition (Barnyardgrass [27]): 99%; inhibition at 280.212 g/ha (Barnyardgrass [27]): 100%; inhibition at 280.212 g/ha (Birdseye Speedwell [28]): 90%; inhibition at 280.212 g/ha (Blackgrass [29]): 98%; inhibition at 280.212 g/ha (Green Foxtail [30]): 100%; % plant inhibition (Cocklebur [31]): 75%; inhibition at 280.212 g/ha (Cocklebur [31]): 70%; % plant inhibition (Velvetleaf [32]): 98%; inhibition at 280.212 g/ha (Velvetleaf [32]): 100%; inhibition at 280.212 g/ha (Wheat [33]): 3%; inhibition at 280.212 g/ha (Soybean [34]): 30%
CCOC(=O)CCCOC(=O)c1cc(-c2nn(C)c(C(F)(F)F)c2C)c(F)cc1Cl [Compound 24] | 15% | 90% | 65% | 25% | 75% | 25% | 25% | 20% | 10% | 15% | 95% | 25% | 20% | 85% | 99% | 20% | 45% | 35% | 100% | 95% | inhibition at 280.212 g/ha (Wild Oats [21]): 15%; inhibition at 280.212 g/ha (Morning Glory [22]): 0%; inhibition at 280.212 g/ha (Rape [23]): 95%; inhibition at 280.212 g/ha (Downy Brome [24]): 30%; inhibition at 280.212 g/ha (Seedling Johnsongrass [25]): 10%; inhibition at 280.212 g/ha (Corn [26]): 0%; inhibition at 280.212 g/ha (Barnyardgrass [27]): 20%; inhibition at 280.212 g/ha (Birdseye Speedwell [28]): 100%; inhibition at 280.212 g/ha (Blackgrass [29]): 50%; inhibition at 280.212 g/ha (Green Foxtail [30]): 100%; inhibition at 280.212 g/ha (Cocklebur [31]): 40%; inhibition at 280.212 g/ha (Velvetleaf [32]): 60%; inhibition at 280.212 g/ha (Wheat [33]): 7%; inhibition at 280.212 g/ha (Soybean [34]): 0%
CCC(CC)COC(=O)c1cc(-c2nn(C)c(C(F)(F)F)c2C)c(F)cc1Cl [Compound 46] | 0% | 95% | 100% | 20% | 70% | 45% | 15% | 25% | 15% | 50% | 100% | 20% | 70% | 85% | 98% | 15% | 15% | 40% | 90% | 75% | inhibition at 280.212 g/ha (Wild Oats [21]): 5%; inhibition at 280.212 g/ha (Morning Glory [22]): 20%; inhibition at 280.212 g/ha (Rape [23]): 5%; inhibition at 280.212 g/ha (Downy Brome [24]): 15%; inhibition at 280.212 g/ha (Seedling Johnsongrass [25]): 75%; inhibition at 280.212 g/ha (Corn [26]): 0%; inhibition at 280.212 g/ha (Barnyardgrass [27]): 0%; inhibition at 280.212 g/ha (Birdseye Speedwell [28]): 80%; inhibition at 280.212 g/ha (Blackgrass [29]): 10%; inhibition at 280.212 g/ha (Green Foxtail [30]): 80%; inhibition at 280.212 g/ha (Cocklebur [31]): 10%; inhibition at 280.212 g/ha (Velvetleaf [32]): 80%; inhibition at 280.212 g/ha (Wheat [33]): 0%; inhibition at 280.212 g/ha (Soybean [34]): 0%

From patent US5672715A, “Herbicidal substituted 3-aryl-pyrazoles” (Monsanto Company, priority 1995, dated 1997)
